Test results reported in US20240150360A1 (THE REGENTS OF THE UNIVERSITY OF MICHIGAN, priority 2021, published 2024).
Where two headings read alike, the source gives them in different places.

What was measured:
HL60 = assay: Cell growth inhibition in HL60; type: cell-based; conditions: Homo sapiens
CBP = biological target: T1, CBP (Homo sapiens, UniProt Q92793); assay: CBP degradation in 22Rv1 cells (5 h); type: cell-based; conditions: 22Rv1 cells, 5 h; for Dmax: 22Rv1, 5 h, read-out: CBP Degradation (22Rv1, 5 h) DCmax
T1 construct: endogenous in cells; host or cells: 22Rv1 (ATCC CRL-2505) human prostate cancer cells
T1 sequence (Q92793 whole entry): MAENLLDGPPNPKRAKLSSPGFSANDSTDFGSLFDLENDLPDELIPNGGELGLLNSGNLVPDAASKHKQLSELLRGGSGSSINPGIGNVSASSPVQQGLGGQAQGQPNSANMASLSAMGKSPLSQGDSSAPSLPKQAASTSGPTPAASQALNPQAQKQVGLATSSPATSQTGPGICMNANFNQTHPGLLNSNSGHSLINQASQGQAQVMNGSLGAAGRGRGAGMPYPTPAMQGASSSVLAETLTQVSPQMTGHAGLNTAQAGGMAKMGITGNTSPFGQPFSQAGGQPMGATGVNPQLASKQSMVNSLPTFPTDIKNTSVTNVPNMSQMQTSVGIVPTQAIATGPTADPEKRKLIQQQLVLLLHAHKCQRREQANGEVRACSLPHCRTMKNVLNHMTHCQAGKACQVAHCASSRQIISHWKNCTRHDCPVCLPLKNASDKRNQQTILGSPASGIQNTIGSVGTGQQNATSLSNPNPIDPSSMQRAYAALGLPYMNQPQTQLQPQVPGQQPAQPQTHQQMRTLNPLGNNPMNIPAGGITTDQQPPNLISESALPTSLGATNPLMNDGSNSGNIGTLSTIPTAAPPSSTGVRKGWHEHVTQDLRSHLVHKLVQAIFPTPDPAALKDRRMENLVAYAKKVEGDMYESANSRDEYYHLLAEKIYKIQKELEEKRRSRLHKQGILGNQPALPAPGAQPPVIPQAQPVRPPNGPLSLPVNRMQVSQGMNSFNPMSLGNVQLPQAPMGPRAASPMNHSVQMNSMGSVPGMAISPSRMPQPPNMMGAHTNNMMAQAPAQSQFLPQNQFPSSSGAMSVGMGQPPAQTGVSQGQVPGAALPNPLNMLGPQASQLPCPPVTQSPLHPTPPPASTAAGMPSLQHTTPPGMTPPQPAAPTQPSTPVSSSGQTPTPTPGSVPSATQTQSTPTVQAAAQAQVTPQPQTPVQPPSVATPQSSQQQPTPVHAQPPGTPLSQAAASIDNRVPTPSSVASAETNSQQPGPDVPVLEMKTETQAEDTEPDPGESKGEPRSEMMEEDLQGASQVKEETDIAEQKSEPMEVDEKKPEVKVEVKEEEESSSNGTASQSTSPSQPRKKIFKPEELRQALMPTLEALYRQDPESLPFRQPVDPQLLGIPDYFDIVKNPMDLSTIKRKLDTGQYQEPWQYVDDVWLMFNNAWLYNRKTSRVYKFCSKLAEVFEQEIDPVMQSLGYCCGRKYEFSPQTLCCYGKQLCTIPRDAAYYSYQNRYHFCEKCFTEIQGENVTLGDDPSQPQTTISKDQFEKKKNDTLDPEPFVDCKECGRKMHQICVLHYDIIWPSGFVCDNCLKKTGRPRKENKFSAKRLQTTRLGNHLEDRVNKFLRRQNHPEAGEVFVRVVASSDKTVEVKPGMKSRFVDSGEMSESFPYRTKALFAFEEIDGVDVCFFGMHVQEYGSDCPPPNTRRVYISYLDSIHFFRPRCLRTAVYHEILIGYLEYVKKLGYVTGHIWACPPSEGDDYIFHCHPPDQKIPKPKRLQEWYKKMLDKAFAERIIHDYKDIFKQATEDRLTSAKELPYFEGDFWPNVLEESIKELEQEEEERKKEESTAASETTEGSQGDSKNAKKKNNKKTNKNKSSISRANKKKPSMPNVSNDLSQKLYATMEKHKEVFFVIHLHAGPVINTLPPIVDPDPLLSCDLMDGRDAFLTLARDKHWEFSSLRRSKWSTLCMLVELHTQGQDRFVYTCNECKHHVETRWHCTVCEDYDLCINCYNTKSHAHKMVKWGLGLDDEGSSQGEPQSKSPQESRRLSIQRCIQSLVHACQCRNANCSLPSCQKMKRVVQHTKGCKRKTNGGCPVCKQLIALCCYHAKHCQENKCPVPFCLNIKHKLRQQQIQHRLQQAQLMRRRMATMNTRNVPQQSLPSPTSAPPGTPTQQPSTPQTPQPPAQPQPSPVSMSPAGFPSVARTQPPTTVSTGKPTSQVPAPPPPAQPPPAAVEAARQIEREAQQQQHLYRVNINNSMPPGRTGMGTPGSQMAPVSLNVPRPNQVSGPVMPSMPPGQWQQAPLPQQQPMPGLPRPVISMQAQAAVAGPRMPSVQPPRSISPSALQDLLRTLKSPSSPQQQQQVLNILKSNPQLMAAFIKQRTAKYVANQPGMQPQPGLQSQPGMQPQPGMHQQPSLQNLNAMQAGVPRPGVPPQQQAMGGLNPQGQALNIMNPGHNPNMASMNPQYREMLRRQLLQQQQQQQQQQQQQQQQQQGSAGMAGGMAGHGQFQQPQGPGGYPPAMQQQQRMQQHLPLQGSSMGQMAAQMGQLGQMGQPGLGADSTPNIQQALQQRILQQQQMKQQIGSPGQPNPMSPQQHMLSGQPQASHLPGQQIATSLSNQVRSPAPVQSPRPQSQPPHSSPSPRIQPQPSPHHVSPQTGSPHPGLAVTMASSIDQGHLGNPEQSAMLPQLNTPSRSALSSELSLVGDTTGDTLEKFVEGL
Source text: (§1) Biological Assays. […] Cells with 3-8 passages after purchase were used in experiments.

22Rv1 cells = assay: Cell growth inhibition assay (CellTiter-Glo) in 22Rv1; type: cell-based, human; conditions: Homo sapiens, 22Rv1, 96 h, read-out: Cell Growth Inhibition (IC50) 22Rv1
Method: Biological Assays. CBP/p300 degradation activity and cell growth inhibition were evaluated in the human prostate cancer cell line 22Rv1 (ATCC© CRL-2505™) purchased from the American Type Culture Collection (ATCC), Manassas, VA, and maintained and cultured in Dulbecco's Modified Eagle's medium (DMEM) containing 10% fetal bovine serum, 1 unit/ml of penicillin and 1 μg/ml of streptomycin. Cells with 3-8 passages after purchase were used in experiments.
Cell Growth Inhibition Assay Protocol. 22RV1 cells were seeded at a concentration of 4000 cells/well in 100 μl culture medium and 2 μl of test compound (final concentration start from 10 μM and 3 times dilution) into 96 well microplates (Corning 3903). The cell cultures were incubated for 96 h at +37° C. and 5% CO2. The plate and its contents were equilibrated to room temperature for approximately 30 minutes. 100 μl of CellTiter-Glo® 2.0 Reagent equal to the volume of cell culture medium present was added in each well. The contents were mixed for 2 minutes on an orbital shaker. The plate was allowed to incubate at room temperature for 10 minutes. The luminescence was recorded. The data was analyzed by Prism GraphPad 8.

P300 = biological target: T2, P300 (Homo sapiens, UniProt Q09472); assay: P300 degradation in 22Rv1 cells (5 h); type: cell-based; conditions: 22Rv1 cells, 5 h; for Dmax: read-out: P300 Degradation (22Rv1, 5 h) DCmax
T2 construct: endogenous in cells; host or cells: 22Rv1 (ATCC CRL-2505) human prostate cancer cells
T2 sequence (Q09472 whole entry): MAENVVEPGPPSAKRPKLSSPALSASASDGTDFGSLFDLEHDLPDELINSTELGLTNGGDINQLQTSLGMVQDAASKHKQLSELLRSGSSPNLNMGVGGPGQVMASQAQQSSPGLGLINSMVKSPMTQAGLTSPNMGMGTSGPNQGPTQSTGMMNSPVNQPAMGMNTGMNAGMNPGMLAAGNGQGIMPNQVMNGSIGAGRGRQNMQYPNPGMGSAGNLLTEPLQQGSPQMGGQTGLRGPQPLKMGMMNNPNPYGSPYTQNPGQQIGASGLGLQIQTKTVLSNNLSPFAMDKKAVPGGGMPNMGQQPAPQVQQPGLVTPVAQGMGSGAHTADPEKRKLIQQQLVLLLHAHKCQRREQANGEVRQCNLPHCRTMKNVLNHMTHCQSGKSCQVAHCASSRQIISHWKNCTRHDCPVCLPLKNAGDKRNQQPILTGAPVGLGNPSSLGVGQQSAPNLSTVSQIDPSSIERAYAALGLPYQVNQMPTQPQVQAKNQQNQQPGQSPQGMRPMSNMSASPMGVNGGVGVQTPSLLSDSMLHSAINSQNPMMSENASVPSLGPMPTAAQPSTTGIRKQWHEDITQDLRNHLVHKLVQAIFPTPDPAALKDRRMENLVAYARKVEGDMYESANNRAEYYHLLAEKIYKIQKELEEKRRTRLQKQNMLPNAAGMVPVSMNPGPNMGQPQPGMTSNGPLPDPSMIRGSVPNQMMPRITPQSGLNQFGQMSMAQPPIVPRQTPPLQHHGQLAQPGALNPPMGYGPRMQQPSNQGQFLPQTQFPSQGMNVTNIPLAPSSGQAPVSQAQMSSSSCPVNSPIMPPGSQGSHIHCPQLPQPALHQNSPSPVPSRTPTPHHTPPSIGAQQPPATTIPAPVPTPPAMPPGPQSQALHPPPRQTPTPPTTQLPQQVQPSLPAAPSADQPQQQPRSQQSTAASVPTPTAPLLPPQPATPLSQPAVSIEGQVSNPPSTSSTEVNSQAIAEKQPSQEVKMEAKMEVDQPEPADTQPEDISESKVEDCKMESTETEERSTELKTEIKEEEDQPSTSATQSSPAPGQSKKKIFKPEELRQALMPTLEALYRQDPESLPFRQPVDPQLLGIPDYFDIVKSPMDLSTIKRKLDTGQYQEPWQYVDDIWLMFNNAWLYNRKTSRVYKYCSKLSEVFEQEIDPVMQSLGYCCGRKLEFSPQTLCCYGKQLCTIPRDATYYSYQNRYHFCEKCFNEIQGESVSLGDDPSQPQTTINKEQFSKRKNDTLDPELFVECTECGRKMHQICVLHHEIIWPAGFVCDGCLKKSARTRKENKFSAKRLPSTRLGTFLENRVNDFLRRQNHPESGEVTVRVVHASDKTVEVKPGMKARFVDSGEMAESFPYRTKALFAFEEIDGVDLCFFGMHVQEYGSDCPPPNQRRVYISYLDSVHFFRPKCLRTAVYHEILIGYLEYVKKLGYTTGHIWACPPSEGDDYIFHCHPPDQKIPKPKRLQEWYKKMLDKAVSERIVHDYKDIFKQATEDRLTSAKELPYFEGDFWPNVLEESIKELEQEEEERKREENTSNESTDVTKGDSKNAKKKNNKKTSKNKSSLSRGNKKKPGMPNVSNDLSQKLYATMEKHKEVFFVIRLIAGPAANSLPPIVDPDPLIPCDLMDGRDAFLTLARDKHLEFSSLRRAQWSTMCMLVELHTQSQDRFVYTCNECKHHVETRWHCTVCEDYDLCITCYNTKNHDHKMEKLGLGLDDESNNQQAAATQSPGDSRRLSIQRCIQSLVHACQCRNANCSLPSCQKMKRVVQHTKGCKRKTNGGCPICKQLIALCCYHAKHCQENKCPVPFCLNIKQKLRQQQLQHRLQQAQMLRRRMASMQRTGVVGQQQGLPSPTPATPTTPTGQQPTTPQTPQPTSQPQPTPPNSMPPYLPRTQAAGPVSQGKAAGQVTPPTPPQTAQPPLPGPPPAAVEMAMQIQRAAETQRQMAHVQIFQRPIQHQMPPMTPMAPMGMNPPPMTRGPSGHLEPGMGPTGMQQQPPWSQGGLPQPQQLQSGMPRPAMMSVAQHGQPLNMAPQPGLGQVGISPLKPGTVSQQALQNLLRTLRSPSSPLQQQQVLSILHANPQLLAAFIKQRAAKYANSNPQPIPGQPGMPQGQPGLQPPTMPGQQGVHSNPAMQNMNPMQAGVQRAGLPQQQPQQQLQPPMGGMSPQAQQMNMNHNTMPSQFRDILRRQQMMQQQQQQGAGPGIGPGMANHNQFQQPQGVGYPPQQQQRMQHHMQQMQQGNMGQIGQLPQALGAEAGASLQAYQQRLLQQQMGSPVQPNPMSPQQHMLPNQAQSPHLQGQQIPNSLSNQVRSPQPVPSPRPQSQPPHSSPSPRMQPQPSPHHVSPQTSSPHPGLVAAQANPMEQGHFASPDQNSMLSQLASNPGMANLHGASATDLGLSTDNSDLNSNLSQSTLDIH
Source text: as §1

[1] = HL-60, read-out: Cell Growth Inhibition (IC50) HL60

| SMILES | Dmax (CBP) [%] | DC50 (CBP) [nM] | DC50 (P300) [nM] | Dmax (P300) [%] | IC50 (HL60; [1]) [nM] | IC50 (22Rv1 cells) [nM] | further results |
| --- | --- | --- | --- | --- | --- | --- | --- |
| CC(=O)N1CCc2c(c(N3CCCc4cc(-c5cnn(C)c5)c(C(F)F)cc43)nn2C2CCN(CC(=O)N3Cc4cc5c(cc4C3)C(=O)N(C3CCC(=O)NC3=O)C5=O)CC2)C1 (stereo not drawn) [CP-006, 6-(2-(4-(5-acetyl-3-(7-(difluoromethyl)-6-(1-methyl-1H-pyrazol-4-yl)-3,4-dihydroquinolin-1(2H)-yl)-4,5,6,7-tetrahydro-1H-pyrazolo[4,3-c]pyridin-1-yl)piperidin-1-yl)acetyl)-2-(2,6-dioxopiperidin-3-yl)-6,7-dihydropyrrolo[3,4-f]isoindole-1,3(2H,5H)-dione] | > 70 | < 10 | – | – | – | – | IC50 (HL60; HL-60, HL60 cells, read-out: Cell Growth Inhibition (IC50) HL60): < 1000 nM; IC50 (22Rv1 cells; 22Rv1 cells, 96 h incubation): < 10000 nM |
| CC(=O)N1CCc2c(c(N3CCCc4cc(-c5cnn(C)c5)c(C(F)F)cc43)nn2C2CCC(N3CC4(Cc5cc6c(cc5C4)C(=O)N(C4CCC(=O)NC4=O)C6=O)C3)CC2)C1 (stereo not drawn) [CP-086, 1-(4-(5-acetyl-3-(7-(difluoromethyl)-6-(1-methyl-1H-pyrazol-4-yl)-3,4-dihydroquinolin-1(2H)-yl)-4,5,6,7-tetrahydro-1H-pyrazolo[4,3-c]pyridin-1-yl)cyclohexyl)-2′-(2,6-dioxopiperidin-3-yl)-5′,7′-dihydro-1′H-spiro[azetidine-3,6′-cyclopenta[f]isoindole]-1′,3′(2′H)-dione] | > 70 | < 10 | < 10 | > 70 | – | – | – |
| CC(=O)N1CCc2c(c(N3CCCc4cc(-c5cnn(C)c5)c(C(F)F)cc43)nn2[C@H]2CC[C@H](CN3CC4(Cc5cc6c(cc5C4)C(=O)N(C4CCC(=O)NC4=O)C6=O)C3)CC2)C1 (stereo partly drawn) [CP-088, 1-(((1r,4r)-4-(5-acetyl-3-(7-(difluoromethyl)-6-(1-methyl-1H-pyrazol-4-yl)-3,4-dihydroquinolin-1(2H)-yl)-4,5,6,7-tetrahydro-1H-pyrazolo[4,3-c]pyridin-1-yl)cyclohexyl)methyl)-2′-(2,6-dioxopiperidin-3-yl)-5′,7′-dihydro-1′H-spiro[azetidine-3,6′-cyclopenta[f]isoindole]-1′,3′(2′H)-dione] | > 70 | < 10 | < 10 | > 70 | – | – | – |
| CC(=O)N1CCc2c(c(N3CCCc4cc(-c5cnn(C)c5)c(C(F)F)cc43)nn2[C@H]2CC[C@@H](CN3Cc4cc5c(cc4C3)C(=O)N(C3CCC(=O)NC3=O)C5=O)CC2)C1 (relative stereo) [CP-046, 6-((4-(5-acetyl-3-(7-(difluoromethyl)-6-(1-methyl-1H-pyrazol-4-yl)-3,4-dihydroquinolin-1(2H)-yl)-4,5,6,7-tetrahydro-1H-pyrazolo[4,3-c]pyridin-1-yl)cyclohexyl)methyl)-2-(2,6-dioxopiperidin-3-yl)-6,7-dihydropyrrolo[3,4-f]isoindole-1,3(2H,5H)-dione] | – | – | – | – | < 100 | < 100 | – |
| CC(=O)N1CCc2c(c(N3CCCc4cc(-c5cnn(C)c5)c(C(F)F)cc43)nn2C2CCC(CCN3Cc4cc5c(cc4C3)C(=O)N(C3CCC(=O)NC3=O)C5=O)CC2)C1 (stereo not drawn) [CP-044, 6-(2-(4-(5-acetyl-3-(7-(difluoromethyl)-6-(1-methyl-1H-pyrazol-4-yl)-3,4-dihydroquinolin-1(2H)-yl)-4,5,6,7-tetrahydro-1H-pyrazolo[4,3-c]pyridin-1-yl)cyclohexyl)ethyl)-2-(2,6-dioxopiperidin-3-yl)-6,7-dihydropyrrolo[3,4-f]isoindole-1,3(2H,5H)-dione] | – | – | – | – | < 100 | < 100 | – |
| CC(=O)N1CCc2c(c(N3CCCc4cc(-c5cnn(C)c5)c(C(F)F)cc43)nn2C[C@H]2CC[C@H](N3Cc4cc5c(cc4C3)C(=O)N(C3CCC(=O)NC3=O)C5=O)CC2)C1 (relative stereo) [CP-039, 6-(-4-((5-acetyl-3-(7-(difluoromethyl)-6-(1-methyl-1H-pyrazol-4-yl)-3,4-dihydroquinolin-1(2H)-yl)-4,5,6,7-tetrahydro-1H-pyrazolo[4,3-c]pyridin-1-yl)methyl)cyclohexyl)-2-(2,6-dioxopiperidin-3-yl)-6,7-dihydropyrrolo[3,4-f]isoindole-1,3(2H,5H)-dione] | – | – | – | – | < 100 | < 1000 | – |
| CC(=O)N1CCc2c(c(N3CCCc4cc(-c5cnn(C)c5)c(C(F)F)cc43)nn2[C@H]2CC[C@H](CN3CCc4ccc5c(c4C3)C(=O)N(C3CCC(=O)NC3=O)C5=O)CC2)C1 (stereo partly drawn) [CP-089, 8-(((1r,4r)-4-(5-acetyl-3-(7-(difluoromethyl)-6-(1-methyl-1H-pyrazol-4-yl)-3,4-dihydroquinolin-1(2H)-yl)-4,5,6,7-tetrahydro-1H-pyrazolo[4,3-c]pyridin-1-yl)cyclohexyl)methyl)-2-(2,6-dioxopiperidin-3-yl)-6,7,8,9-tetrahydro-1H-pyrrolo[3,4-h]isoquinoline-1,3(2H)-dione] | < 50 | > 1000 | > 1000 | < 50 | – | – | – |
| CC(=O)N1CCc2c(c(N3CCCc4cc(-c5cnn(C)c5)c(C(F)F)cc43)nn2C[C@H]2CC[C@H](CN3Cc4cc5c(cc4C3)C(=O)N(C3CCC(=O)NC3=O)C5=O)CC2)C1 (stereo partly drawn) [CP-043, 6-((4-((5-acetyl-3-(7-(difluoromethyl)-6-(1-methyl-1H-pyrazol-4-yl)-3,4-dihydroquinolin-1(2H)-yl)-4,5,6,7-tetrahydro-1H-pyrazolo[4,3-c]pyridin-1-yl)methyl)cyclohexyl)methyl)-2-(2,6-dioxopiperidin-3-yl)-6,7-dihydropyrrolo[3,4-f]isoindole-1,3(2H,5H)-dione] | – | – | – | – | < 1000 | < 10000 | – |
| CC(=O)N1CCc2c(c(N3CCCc4cc(-c5cnn(C)c5)c(C(F)F)cc43)nn2C2CCC(N3CCc4ccc5c(c4C3)C(=O)N(C3CCC(=O)NC3=O)C5=O)CC2)C1 (stereo not drawn) [CP-087, 8-((1r,4r)-4-(5-acetyl-3-(7-(difluoromethyl)-6-(1-methyl-1H-pyrazol-4-yl)-3,4-dihydroquinolin-1(2H)-yl)-4,5,6,7-tetrahydro-1H-pyrazolo[4,3-c]pyridin-1-yl)cyclohexyl)-2-(2,6-dioxopiperidin-3-yl)-6,7,8,9-tetrahydro-1H-pyrrolo[3,4-h]isoquinoline-1,3(2H)-dione] | < 50 | > 1000 | > 1000 | < 50 | – | – | – |
| CC(=O)N1CCc2c(c(N3CCCc4cc(-c5cnn(C)c5)c(C(F)F)cc43)nn2C2CCC(N3Cc4cc5c(cc4C3)C(=O)N(C3CCC(=O)NC3=O)C5=O)CC2)C1 (stereo not drawn) [CP-037, 6-(4-(5-acetyl-3-(7-(difluoromethyl)-6-(1-methyl-1H-pyrazol-4-yl)-3,4-dihydroquinolin-1(2H)-yl)-4,5,6,7-tetrahydro-1H-pyrazolo[4,3-c]pyridin-1-yl)cyclohexyl)-2-(2,6-dioxopiperidin-3-yl)-6,7-dihydropyrrolo[3,4-f]isoindole-1,3(2H,5H)-dione] | – | – | – | – | < 100 | < 100 | – |
| CC(=O)N1CCc2c(c(N3CCCc4cc(-c5cnn(C)c5)c(C(F)F)cc43)nn2C[C@H]2CC[C@@H](N3Cc4cc5c(cc4C3)C(=O)N(C3CCC(=O)NC3=O)C5=O)CC2)C1 (stereo partly drawn) [CP-040, 6-(4-((5-acetyl-3-(7-(difluoromethyl)-6-(1-methyl-1H-pyrazol-4-yl)-3,4-dihydroquinolin-1(2H)-yl)-4,5,6,7-tetrahydro-1H-pyrazolo[4,3-c]pyridin-1-yl)methyl)cyclohexyl)-2-(2,6-dioxopiperidin-3-yl)-6,7-dihydropyrrolo[3,4-f]isoindole-1,3(2H,5H)-dione] | – | – | – | – | < 100 | < 1000 | – |
| CC(=O)N1CCc2c(c(N3CCCc4cc(-c5cnn(C)c5)c(C(F)F)cc43)nn2C2CCN(C(=O)CN3Cc4cc5c(cc4C3)C(=O)N(C3CCC(=O)NC3=O)C5=O)CC2)C1 (stereo not drawn) [CP-005, 6-(2-(4-(5-acetyl-3-(7-(difluoromethyl)-6-(1-methyl-1H-pyrazol-4-yl)-3,4-dihydroquinolin-1(2H)-yl)-4,5,6,7-tetrahydro-1H-pyrazolo[4,3-c]pyridin-1-yl)piperidin-1-yl)-2-oxoethyl)-2-(2,6-dioxopiperidin-3-yl)-6,7-dihydropyrrolo[3,4-f]isoindole-1,3(2H,5H)-dione] | – | – | – | – | < 100 | < 100 | – |
| CC(=O)N1CCc2c(c(N3CCCc4cc(-c5cnn(C)c5)c(C(F)F)cc43)nn2[C@H]2CC[C@H](CN3Cc4cc5c(cc4C3)C(=O)N(C3CCC(=O)NC3=O)C5=O)CC2)C1 (stereo partly drawn) [CP-047, 6-((4-(5-acetyl-3-(7-(difluoromethyl)-6-(1-methyl-1H-pyrazol-4-yl)-3,4-dihydroquinolin-1(2H)-yl)-4,5,6,7-tetrahydro-1H-pyrazolo[4,3-c]pyridin-1-yl)cyclohexyl)methyl)-2-(2,6-dioxopiperidin-3-yl)-6,7-dihydropyrrolo[3,4-f]isoindole-1,3(2H,5H)-dione] | – | – | – | – | < 100 | < 100 | – |
